According to patent US20250282831A1, “NOVEL PROTEIN AND NUCLEIC ACID SEQUENCES FOR COVID-19 VACCINES” (Dompe' Farmaceutici SPA, priority 2021, published 2025):

What was measured:
[1] = system: Osteoclasts from RAW264.7 macrophages; assay: Estrogen-like activity: TRAP activity by ELISA in osteoclasts; format: cell-based, murine; conditions: RANKL-differentiated osteoclasts; 24 h; 1 nM Estradiol or 10 ng/ml spike proteins
THP-1 = assay: Proteome profile (cytokine array) of conditioned media from differentiated THP-1 cells; format: cell-based, Human
[2] = system: MCF-7 breast cancer cells; assay: BrdU proliferation assay in MCF-7 breast cancer cell line; format: cell-based; conditions: 24 hours

SMILES	TRAP levels, Mean [1]	effect on spike-induced IL-8 up-regulation (in words) (THP-1)	effect on CHI3L1 up-regulation (in words) (THP-1; co-treatment with spike and/or estradiol, 24 h)	effect on OPN upregulation (in words) (THP-1; co-treatment with spike, 24 h)	cell proliferation, Mean ([2]; peptides 10 ug/ml, spike 10 ng/ml, raloxifene 2 μM)	effect on estradiol- and spike-induced proliferation (in words) ([2]; co-treatment with raloxifene 2 μM)
C[C@]12CC[C@@H]3c4ccc(O)cc4CC[C@H]3[C@@H]1CC[C@@H]2O [Estradiol]	0.25 U/L	–	–	–	–	–
O=C(c1ccc(OCCN2CCCCC2)cc1)c1c(-c2ccc(O)cc2)sc2cc(O)ccc12 [ral, Raloxifene]	–	effective in counteracting the effect of spike	able to counteract only the effects of spike alone	able to counteract the effects of spike alone	109.5 percentage of control	counteracted
